{"source": "patent US20230233500A1", "about": "“Gasdermin D (GSDMD) Succination for the Treatment of Inflammatory Disease” (University of Massachusetts, priority 2020, published 2023)", "key": {"[1]": {"system": "BMDMs", "assay": "Pyroptosis in BMDMs after transfected LPS, Salmonella infection or poly (dA:dT)", "format": "cell-based, mouse", "protocol": "FIGS. 5A-G. Fumarate inhibits pyroptosis. (A) SYTOX Orange and Hoechst stained WT BMDMs treated with LPS for 2 hours, DMSO (vehicle) or fumarate (25 μM) for 1 hour and nigericin for 6 hours. (B) LDH assay conditioned medium from WT BMDMs treated with LPS for 3 hours, nigericin for the indicated times and DMSO (vehicle) or fumarate (25 μM) 15 minutes after each nigericin (10 μM) timepoint. (C) Immunoblot analysis of GSDMD in BMDMs treated as in […]. (D-E) LDH (D) and immunoblot analysis of GSDMD and β-actin in lysates (E) from WT BMDMs treated with DMSO (vehicle) or fumarate ([…]) for 1 hour followed by salmonella infection (MOI 10) for 6 hours. (F-G) LDH (F) and immunoblot analysis of GSDMD and β-actin in lysates (G) from WT BMDMs primed with LPS for 2 hours, followed by treatment with fumarate (25 μM) transfection with Poly (dA:dT) (1 μg). A, C, E, G are representative of 3 independent experiments. B, D, F are pooled data from 3 independent experiments. ***, P<0.001, ****, P<0.00001 (Two-way ANOVA). Error bars show means±SEM.\n(§1) Cells were plated, treated and incubated in phenol red free medium. Following treatment medium was collected and assessed for LDH release using the CytoTox96 non-radioactive cytotoxicity assay (Promega) as per manufacturer's instructions. Kinetic cell death assays were performed using SytoxOrange and the Biotek Cytation5.\nCells were primed with LPS (100 ng/ml) from Escherichia coli serotype EH100 (ra) TLRgrade for 3 h followed by stimulation with the inflammasome activator Nigericin ([…]) for 1 h. For noncanonical inflammasome activation, cells were primed with […] Pam3CSK4 (Invivogen) for 2 h, followed by transfection of LPS (2 μg/ml) using Lipofectamine 2000 for 16 hours."}, "[2]": {"system": "Bone marrow-derived macrophages (BMDMs)", "assay": "LPS-nigericin inflammasome activation/pyroptosis in BMDMs", "format": "cell-based, mouse", "conditions": "for kinetic cell death: SYTOX orange, 0-6 hrs", "protocol": "Human kidney cell line HEK293T was cultured in Dulbecco's modified Eagle's medium supplemented with 10% (v/v) fetal bovine serum, 100 U/ml penicillin and 100 µg/ml streptomycin. Human peripheral blood monocyte cell line, THP1 cells were cultured in RPMI-1640 medium supplemented with 10% (v/v) fetal bovine serum, 100 U/ml penicillin and 100 µg/ml streptomycin. For isolation of BMDMs, tibias and femurs were removed from wild type and GsdmD^−/− mice and bone marrow was flushed with complete DMEM-medium. Cells were plated in medium containing 20% (v/v) conditioned medium of L929 mouse fibroblasts cultured for 7 days at 37° C. in a humidified atmosphere of 5% C02. Medium was replaced every 3 days.\nConditioned media or serum was collected as indicated and IL-1β or TNF-α, were quantified by sandwich ELISA (R&D Systems).\nas §1\nFor noncanonical inflammasome activation, cells were primed with […] Pam3CSK4 (Invivogen) for 2 h, followed by transfection of LPS (2 μg/ml) using Lipofectamine 2000 for 16 hours.\nPrimary BMDMs from WT or GsdmD^−/− mice were cultured in 12-well plates (1×10^6 cells per ml; 1 ml) or 10 cm dishes (2×10^6 cells per ml; 10 ml). HEK293T cells (2.5×10^5 cells per ml; 3 ml) were cultured in 6-well plates and transfected with FLAG-tagged GSDMD constructs where indicated. For cell lysate analysis cells were lysed directly in 1× Lamelli sample buffer. For native gel analysis cells were lysed in NP-40 lysis buffer (50 mM Tris-HCl, pH 7.4, containing 150 mM NaCl, 0.5% (w/v) IgePal, 50 mM NaF, 1 mM Na3VO4, 1 mM dithiothreitol, 1 mM phenylmethylsulfonyl fluoride and protease inhibitor cocktail. For immunoprecipitation of GSDMD, cells were treated as indicated and then collected in 500 μl RIPA buffer, followed by incubation for 15 min on ice. Lysates were incubated with GSDMD antibody and protein A-protein G-agarose was added to each sample, followed by incubation overnight at 4° C. Immunoprecipitates were collected by centrifugation and washed four times with 1 ml of RIPA buffer. Immunprecipates were eluted from beads using 1× sample buffer. Samples were resolved by SDS-PAGE and stained using simply blue safe stain or transferred to nitrocellulose membranes and analyzed by immunoblot. Immunoreactivity was visualized by the Odyssey Imaging System (LICOR Biosciences). For immunoblotting of IL-1β in cell supernatants, conditioned medium was collected and filtered using filter spin columns to reduce salt and remove abundant serum proteins. Filtrates were added to 4×SDS-PAGE sample buffer and resolved by SDS-PAGE for immunoblot analysis. GSDMD (ab209845) and GSDME antibodies were from abcam (ab215191). Caspase 1 antibody was from adipogen. Fumarase antibody was from cell signalling and anti-β-actin (AC-15; A1978) were from Sigma; anti-mouse IRDye™ 680 (926-68070) and anti-rabbit IRDye™ 800 (926-32211) were from LI-COR Biosciences.\nNumerous studies have shown that cell metabolism impacts inflammatory responses. LPS activated macrophages switch from oxidative phosphorylation to aerobic glycolysis. Krebs cycle intermediates such as succinate and itaconate accumulate and moonlight as positive and negative regulators of inflammatory gene expression (3-8). To determine if Krebs cycle intermediates modulate pyroptosis, we tested their effect on inflammasome responses. Bone marrow-derived macrophages (BMDMs) were primed with LPS (2 hr) before being exposed to metabolites and then exposed to nigericin (Nig) and inflammasome activation/pyroptosis measured. The metabolites were added after LPS to avoid any impact on transcription. […] Fumarate impaired kinetic cell death (0-6 hrs) (FIG. 1E, FIG. 5A). […]"}, "[3]": {"biological_target": "T1, h.GSDMD (Homo sapiens, UniProt P57764)", "T1 sequence (P57764 1-484)": "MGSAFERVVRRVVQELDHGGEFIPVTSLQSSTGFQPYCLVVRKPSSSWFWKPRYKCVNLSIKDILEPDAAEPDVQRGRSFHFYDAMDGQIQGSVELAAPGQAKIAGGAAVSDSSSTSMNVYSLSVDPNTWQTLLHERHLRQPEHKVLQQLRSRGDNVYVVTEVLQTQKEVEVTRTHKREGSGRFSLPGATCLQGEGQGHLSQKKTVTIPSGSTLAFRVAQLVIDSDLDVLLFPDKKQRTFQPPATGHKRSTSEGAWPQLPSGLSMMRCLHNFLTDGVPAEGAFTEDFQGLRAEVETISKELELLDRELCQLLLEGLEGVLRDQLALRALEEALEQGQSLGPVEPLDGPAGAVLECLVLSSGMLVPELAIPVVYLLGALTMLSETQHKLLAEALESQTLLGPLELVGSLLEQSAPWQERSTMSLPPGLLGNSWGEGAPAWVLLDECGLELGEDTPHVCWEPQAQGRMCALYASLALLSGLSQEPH", "assay": "In vitro succination reaction with LC-MS/MS peptide mapping", "format": "binding", "conditions": "recombinant h.GSDMD"}}, "note": "Entries after “also recorded” stand apart in the source; their conditions may differ. Counter-ions that a name gives are not always drawn."}
{"compound": "COC(=O)/C=C/C(=O)OC", "note": "[Fumarate, Dimethyl fumarate]", "values": [{"measurement": "inhibitory effect on pyroptosis after poly (dA:dT)", "setting": "[1]; LPS primed 2 hours, fumarate 25 μM, LDH and GSDMD immunoblot", "result": "inhibitory effect"}, {"measurement": "inhibitory effect on pyroptosis after Salmonella infection", "setting": "[1]; fumarate 25 μM 1 hour, MOI 10, 6 hours, LDH and GSDMD immunoblot", "result": "inhibitory effect"}, {"measurement": "inhibitory effect on pyroptosis after transfected LPS", "setting": "[1]; noncanonical inflammasome", "result": "inhibitory effect"}, {"measurement": "GSDMD oligomerization", "setting": "[2]; BMDMs pre-treated, LPS-Nig, native and reduced lysates", "result": "decreased"}, {"measurement": "LPS-Nig-induced release of LDH", "setting": "[2]; WT BMDMs, LPS 2 hr, compound 1 hour (fumarate 25 μM), then nigericin", "result": "potently blocked"}, {"measurement": "LPS-Nig-induced release of IL-1β", "setting": "[2]; WT BMDMs, LPS 2 hr, compound 1 hour (fumarate 25 μM), then nigericin, ELISA", "result": "potently blocked"}, {"measurement": "kinetic cell death", "setting": "[2]; WT BMDMs, LPS-Nig", "result": "impaired"}, {"measurement": "kinetic cell death", "setting": "[2]; WT BMDMs, LPS-Nig, listed as fumarate", "result": "inhibited cell death"}, {"measurement": "formation of GSDMD-N", "setting": "[2]; WT BMDMs, LPS-Nig, immunoblot", "result": "blocked"}, {"measurement": "cell death when added after Nig treatment", "setting": "[2]; WT BMDMs, fumarate 25 μM 15 minutes after each nigericin timepoint", "result": "impaired"}, {"measurement": "In vitro cysteine succination sites", "setting": "[3]", "result": "same cysteines"}, {"measurement": "In vitro cysteine succination sites", "setting": "[3]; listed as DMF", "result": "Cys309; also recorded: Cys467; also recorded: Cys56; also recorded: Cys191; also recorded: Cys268"}]}
